# Data: PubChem BioAssay (NCI)
#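 Growth conditions: 96-well plates. Treatment: test compound, 48 hours, 5 concentrations. Analysis: linear interpolation between bracketing concentrations; unreached endpoints set to highest concentration. GI50 is the concentration that inhibits growth by half. TGI: concentration producing complete growth inhibition.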
# How the values were obtained:
# Experiment in all cases: growth of human tumour cells (NCI), 48 h
# OVCAR-5 ovarian = test system: OVCAR-5 ovarian
# COLO 205 colon = test system: COLO 205 colon
# RXF 393 renal = test system: RXF 393 renal
# SN12C renal = test system: SN12C renal
# HS 578T breast = test system: HS 578T breast
# KM12 colon = test system: KM12 colon
# OVCAR-8 ovarian = test system: OVCAR-8 ovarian
# BT-549 breast = test system: BT-549 breast
# T-47D breast = test system: T-47D breast
# HOP-62 NSCLC = test system: HOP-62 NSCLC
# U251 CNS = test system: U251 CNS
# 786-0 renal = test system: 786-0 renal
# MOLT-4 leukemia = test system: MOLT-4 leukemia
# UACC-62 melanoma = test system: UACC-62 melanoma
# A549 NSCLC = test system: A549 NSCLC
# ACHN renal = test system: ACHN renal
# SK-OV-3 ovarian = test system: SK-OV-3 ovarian
# TK-10 renal = test system: TK-10 renal
# A498 renal = test system: A498 renal
# SR leukemia = test system: SR leukemia
# HCT-116 colon = test system: HCT-116 colon
# NCI-H226 lung = test system: NCI-H226 lung
# NCI-H460 lung = test system: NCI-H460 lung
# OVCAR-3 ovarian = test system: OVCAR-3 ovarian
# HCT-15 colon = test system: HCT-15 colon
# DU-145 prostate = test system: DU-145 prostate
# MDA-MB-231 breast = test system: MDA-MB-231 breast
# HOP-92 NSCLC = test system: HOP-92 NSCLC
# MDA-MB-435 = test system: MDA-MB-435
# SW-620 colon = test system: SW-620 colon
# SK-MEL-5 melanoma = test system: SK-MEL-5 melanoma
# MALME-3M melanoma = test system: MALME-3M melanoma
# UACC-257 melanoma = test system: UACC-257 melanoma
# SNB-75 CNS = test system: SNB-75 CNS
# SF-295 CNS = test system: SF-295 CNS
# CCRF-CEM leukemia = test system: CCRF-CEM leukemia
# SNB-19 CNS = test system: SNB-19 CNS
# HL-60(TB) leukemia = test system: HL-60(TB) leukemia
# SK-MEL-2 melanoma = test system: SK-MEL-2 melanoma
# M14 melanoma = test system: M14 melanoma
# PC-3 prostate = test system: PC-3 prostate
# OVCAR-4 ovarian = test system: OVCAR-4 ovarian
# UO-31 renal = test system: UO-31 renal
# SF-268 CNS = test system: SF-268 CNS
# MCF7 breast = test system: MCF7 breast
# NCI-H23 lung = test system: NCI-H23 lung
# HCC-2998 colon = test system: HCC-2998 colon
# RPMI-8226 leukemia = test system: RPMI-8226 leukemia
# IGROV1 ovarian = test system: IGROV1 ovarian
# K-562 leukemia = test system: K-562 leukemia
# NCI/ADR-RES ovarian = test system: NCI/ADR-RES ovarian
# CAKI-1 renal = test system: CAKI-1 renal
# HT29 colon = test system: HT29 colon
# SK-MEL-28 melanoma = test system: SK-MEL-28 melanoma
# LOX IMVI melanoma = test system: LOX IMVI melanoma
# SF-539 CNS = test system: SF-539 CNS
# EKVX NSCLC = test system: EKVX NSCLC
# NCI-H522 lung = test system: NCI-H522 lung
smiles,measurement,setting,value
CN(C)CCS(=O)(=O)Nc1cc(-c2ccc3ncnc(Nc4ccc(F)c(Cl)c4)c3c2)cnc1Cl,GI50,OVCAR-5 ovarian,0.268 µM
same,TGI,OVCAR-5 ovarian,> 22.8 µM
same,GI50,COLO 205 colon,0.748 µM
same,TGI,COLO 205 colon,2.22 µM
same,GI50,RXF 393 renal,0.256 µM
same,TGI,RXF 393 renal,1.22 µM
same,GI50,SN12C renal,0.624 µM
same,TGI,SN12C renal,> 100 µM
same,GI50,HS 578T breast,0.32 µM
same,TGI,HS 578T breast,10.8 µM
same,GI50,KM12 colon,1.46 µM
same,TGI,KM12 colon,4.25 µM
same,GI50,OVCAR-8 ovarian,1.77 µM
same,TGI,OVCAR-8 ovarian,> 51.7 µM
same,GI50,BT-549 breast,0.24 µM
same,TGI,BT-549 breast,1.38 µM
same,GI50,T-47D breast,0.0941 µM
same,TGI,T-47D breast,0.635 µM
same,GI50,HOP-62 NSCLC,0.473 µM
same,TGI,HOP-62 NSCLC,> 100 µM
same,GI50,U251 CNS,0.85 µM
same,TGI,U251 CNS,2.91 µM
same,GI50,786-0 renal,1.34 µM
same,TGI,786-0 renal,> 100 µM
same,GI50,MOLT-4 leukemia,0.257 µM
same,TGI,MOLT-4 leukemia,0.69 µM
same,GI50,UACC-62 melanoma,0.938 µM
same,TGI,UACC-62 melanoma,3.4 µM
same,GI50,A549 NSCLC,0.803 µM
same,TGI,A549 NSCLC,3.26 µM
same,GI50,ACHN renal,0.392 µM
same,TGI,ACHN renal,> 100 µM
same,GI50,SK-OV-3 ovarian,0.261 µM
same,TGI,SK-OV-3 ovarian,1.64 µM
same,GI50,TK-10 renal,0.188 µM
same,TGI,TK-10 renal,1.31 µM
same,GI50,A498 renal,0.336 µM
same,TGI,A498 renal,1.17 µM
same,GI50,SR leukemia,0.809 µM
same,GI50,HCT-116 colon,0.829 µM
same,TGI,HCT-116 colon,6.43 µM
same,GI50,NCI-H226 lung,2.11 µM
same,TGI,NCI-H226 lung,> 100 µM
same,GI50,NCI-H460 lung,1.04 µM
same,TGI,NCI-H460 lung,> 100 µM
same,GI50,OVCAR-3 ovarian,0.22 µM
same,TGI,OVCAR-3 ovarian,1.2 µM
same,GI50,HCT-15 colon,1.11 µM
same,TGI,HCT-15 colon,4.36 µM
same,GI50,DU-145 prostate,0.566 µM
same,TGI,DU-145 prostate,> 37.3 µM
same,GI50,MDA-MB-231 breast,0.37 µM
same,TGI,MDA-MB-231 breast,1.8 µM
same,GI50,HOP-92 NSCLC,0.0757 µM
same,TGI,HOP-92 NSCLC,0.513 µM
same,GI50,MDA-MB-435,0.713 µM
same,TGI,MDA-MB-435,3.04 µM
same,GI50,SW-620 colon,1.2 µM
same,TGI,SW-620 colon,> 38 µM
same,GI50,SK-MEL-5 melanoma,0.208 µM
same,TGI,SK-MEL-5 melanoma,0.622 µM
same,GI50,MALME-3M melanoma,0.114 µM
same,TGI,MALME-3M melanoma,0.666 µM
same,GI50,UACC-257 melanoma,0.775 µM
same,TGI,UACC-257 melanoma,6.81 µM
same,GI50,SNB-75 CNS,0.282 µM
same,TGI,SNB-75 CNS,> 100 µM
same,GI50,SF-295 CNS,0.515 µM
same,TGI,SF-295 CNS,> 100 µM
same,GI50,CCRF-CEM leukemia,0.322 µM
same,TGI,CCRF-CEM leukemia,> 37 µM
same,GI50,SNB-19 CNS,1.91 µM
same,TGI,SNB-19 CNS,> 100 µM
same,GI50,HL-60(TB) leukemia,1.33 µM
same,TGI,HL-60(TB) leukemia,9.15 µM
same,GI50,SK-MEL-2 melanoma,0.715 µM
same,TGI,SK-MEL-2 melanoma,2.74 µM
same,GI50,M14 melanoma,0.655 µM
same,TGI,M14 melanoma,> 35.4 µM
same,GI50,PC-3 prostate,0.536 µM
same,TGI,PC-3 prostate,> 100 µM
same,GI50,OVCAR-4 ovarian,1.29 µM
same,TGI,OVCAR-4 ovarian,> 100 µM
same,GI50,UO-31 renal,0.259 µM
same,TGI,UO-31 renal,1.69 µM
same,GI50,SF-268 CNS,0.549 µM
same,TGI,SF-268 CNS,> 100 µM
same,GI50,MCF7 breast,0.292 µM
same,TGI,MCF7 breast,> 100 µM
same,GI50,NCI-H23 lung,0.577 µM
same,TGI,NCI-H23 lung,> 100 µM
same,GI50,HCC-2998 colon,1.05 µM
same,TGI,HCC-2998 colon,3.04 µM
same,GI50,RPMI-8226 leukemia,1.04 µM
same,TGI,RPMI-8226 leukemia,4.52 µM
same,GI50,IGROV1 ovarian,0.0859 µM
same,TGI,IGROV1 ovarian,0.38 µM
same,GI50,K-562 leukemia,2.95 µM
same,TGI,K-562 leukemia,> 54.5 µM
same,GI50,NCI/ADR-RES ovarian,3.32 µM
same,TGI,NCI/ADR-RES ovarian,> 100 µM
Cc1ccc(NC(=O)c2ccc(NC3=C(Cl)C(=O)N(Cc4ccccc4)C3=O)cc2)cc1Cl,GI50,OVCAR-5 ovarian,0.774 µM
same,TGI,OVCAR-5 ovarian,10.2 µM
same,GI50,COLO 205 colon,13.5 µM
same,TGI,COLO 205 colon,> 100 µM
same,GI50,SN12C renal,3.87 µM
same,TGI,SN12C renal,20.5 µM
same,GI50,HS 578T breast,10.7 µM
same,TGI,HS 578T breast,34.9 µM
same,GI50,KM12 colon,31 µM
same,TGI,KM12 colon,> 100 µM
same,GI50,OVCAR-8 ovarian,9.96 µM
same,TGI,OVCAR-8 ovarian,21.5 µM
same,GI50,BT-549 breast,1.04 µM
same,TGI,BT-549 breast,5.09 µM
same,GI50,T-47D breast,2.8 µM
same,TGI,T-47D breast,14.5 µM
same,GI50,HOP-62 NSCLC,12.2 µM
same,TGI,HOP-62 NSCLC,31.9 µM
same,GI50,U251 CNS,3.97 µM
same,TGI,U251 CNS,17.8 µM
same,GI50,786-0 renal,3.35 µM
same,TGI,786-0 renal,15.9 µM
same,GI50,MOLT-4 leukemia,2.35 µM
same,TGI,MOLT-4 leukemia,15.1 µM
same,GI50,UACC-62 melanoma,15.5 µM
same,TGI,UACC-62 melanoma,59.9 µM
same,GI50,A549 NSCLC,12.9 µM
same,TGI,A549 NSCLC,25.6 µM
same,GI50,ACHN renal,12.6 µM
same,TGI,ACHN renal,25.1 µM
same,GI50,SK-OV-3 ovarian,22.7 µM
same,TGI,SK-OV-3 ovarian,54.6 µM
same,GI50,TK-10 renal,17.4 µM
same,TGI,TK-10 renal,40.5 µM
same,GI50,CAKI-1 renal,1.68 µM
same,TGI,CAKI-1 renal,3.81 µM
same,GI50,A498 renal,0.854 µM
same,TGI,A498 renal,26.9 µM
same,GI50,SR leukemia,0.864 µM
same,TGI,SR leukemia,2.98 µM
same,GI50,HCT-116 colon,3.08 µM
same,TGI,HCT-116 colon,13.3 µM
same,GI50,NCI-H226 lung,8.69 µM
same,TGI,NCI-H226 lung,23.5 µM
same,GI50,NCI-H460 lung,10.3 µM
same,TGI,NCI-H460 lung,27 µM
same,GI50,OVCAR-3 ovarian,3.6 µM
same,TGI,OVCAR-3 ovarian,18.7 µM
same,GI50,HCT-15 colon,2.25 µM
same,TGI,HCT-15 colon,13.2 µM
same,GI50,DU-145 prostate,0.624 µM
same,TGI,DU-145 prostate,7.73 µM
same,GI50,MDA-MB-231 breast,1.35 µM
same,TGI,MDA-MB-231 breast,11.9 µM
same,GI50,HOP-92 NSCLC,1.65 µM
same,TGI,HOP-92 NSCLC,11.6 µM
same,GI50,HT29 colon,6.81 µM
same,TGI,HT29 colon,51.3 µM
same,GI50,MDA-MB-435,24 µM
same,TGI,MDA-MB-435,> 100 µM
same,GI50,SW-620 colon,1.99 µM
same,TGI,SW-620 colon,11.8 µM
same,GI50,SK-MEL-5 melanoma,12 µM
same,TGI,SK-MEL-5 melanoma,24.3 µM
same,GI50,UACC-257 melanoma,13.3 µM
same,TGI,UACC-257 melanoma,35.8 µM
same,GI50,SNB-75 CNS,23.9 µM
same,TGI,SNB-75 CNS,76.8 µM
same,GI50,SF-295 CNS,19.9 µM
same,TGI,SF-295 CNS,> 100 µM
same,GI50,CCRF-CEM leukemia,1.02 µM
same,TGI,CCRF-CEM leukemia,3.54 µM
same,GI50,SNB-19 CNS,60.5 µM
same,TGI,SNB-19 CNS,> 100 µM
same,TGI,HL-60(TB) leukemia,14.6 µM
same,GI50,SK-MEL-2 melanoma,12.5 µM
same,TGI,SK-MEL-2 melanoma,34.1 µM
same,GI50,M14 melanoma,17.6 µM
same,TGI,M14 melanoma,55.1 µM
same,GI50,PC-3 prostate,12.5 µM
same,TGI,PC-3 prostate,25.1 µM
same,GI50,SK-MEL-28 melanoma,24.2 µM
same,TGI,SK-MEL-28 melanoma,> 100 µM
same,GI50,OVCAR-4 ovarian,14.7 µM
same,TGI,OVCAR-4 ovarian,66.5 µM
same,GI50,LOX IMVI melanoma,3 µM
same,TGI,LOX IMVI melanoma,14 µM
same,GI50,UO-31 renal,1.41 µM
same,TGI,UO-31 renal,2.71 µM
same,GI50,SF-268 CNS,12.4 µM
same,TGI,SF-268 CNS,33.7 µM
same,GI50,SF-539 CNS,2.47 µM
same,TGI,SF-539 CNS,16.4 µM
same,GI50,EKVX NSCLC,26.4 µM
same,TGI,EKVX NSCLC,> 100 µM
same,GI50,NCI-H522 lung,3.73 µM
same,TGI,NCI-H522 lung,20.5 µM
same,GI50,MCF7 breast,3.3 µM
same,TGI,MCF7 breast,15.4 µM
same,GI50,NCI-H23 lung,11.3 µM
same,TGI,NCI-H23 lung,29.8 µM
same,GI50,HCC-2998 colon,2.36 µM
same,TGI,HCC-2998 colon,14.2 µM
same,GI50,RPMI-8226 leukemia,3.58 µM
same,TGI,RPMI-8226 leukemia,16.5 µM
same,GI50,IGROV1 ovarian,0.49 µM
same,TGI,IGROV1 ovarian,2.64 µM
same,GI50,K-562 leukemia,2.23 µM
same,TGI,K-562 leukemia,12 µM
same,GI50,NCI/ADR-RES ovarian,3.78 µM
same,TGI,NCI/ADR-RES ovarian,21.7 µM
